One molecule from patent US20080279961A1, “TELOMERE TARGETING AGENTS AS STEM CELLS DIRECTED TREATMENTS” (priority 2007, published 2008) can be followed below.

Each structure is given as a SMILES string. Entries after “also recorded” stand apart in the source; their conditions may differ.

The test system of one series is gamma-H2AX. Briefly: gamma-H2AX immunoblotting and immunofluorescence. The class given is cell-based, human. As to conditions: UXF1138L cells, 1 μM, Western blot. The method, then: During phosphorylated H2AX (gamma-H2AX) and hTERT immunofluorescence staining, approximately 75,000 UXF1138L cells/chamber were seeded onto 8 chamber glass slides (Costar) 24 hrs prior to RHPS4 treatment. After exposure to 1 μM RHPS4 for 1, 6, or 24 hours, cells were washed twice with PBS and air dried. Cells were fixed and permeabilized by immersion into ice-cold methanol/acetone (1:1; 3×1 min). Slides were blocked overnight at 4° C. with 5% BSA in PBS and washed with PBS (3×) before incubation (2 hrs) with anti-gamma-H2AX mouse monoclonal antibody (Upstate, Waltham, Mass.; 1:250 in PBS) or hTERT monoclonal antibody (NCL-L-hTERT Novacastra, Newcastle, UK; 1:40) respectively. Control cells were probed with mouse IgG (Santa Cruz Biotechnolog Inc., Santa Cruz, Calif.). Slides were washed 3× with PBS, before incubation with a goat anti-mouse FITC conjugated secondary antibody (Sigma; 1:100, 3 h). Following further PBS washes (3×), slides were incubated with 1:5000 DAPI (2 mg/ml; Sigma), washed 3× in PBS and mounted with Vectashield mounting media. Images were visualized as described above.
During immunoblotting for gamma-H2AX, cells were grown to 50 to 80% confluent in 6-well plates (Falcon) and treated with 1 μM RHPS4 for 1, 6, and 24 hours. […] Histones were dissolved in water and protein concentration was determined using the BioRad protein assay (BioRad Laboratories, Hercules Calif.). […]
In general terms: A western blot detects proteins with antibodies after separation by electrophoresis.

The test system of the next series is UXF1138L cells. Briefly: metaphase spreads. In kind it is cell-based, human. As to conditions: 1 microM, 24 hrs. The method, then:
To prepare metaphase spreads, cells were grown to 70% confluency and treated with 1 μM RHPS4 or PBS (vehicle control) for 24 hours in a T75 tissue culture flask. Supernatants were then replaced with media containing 10 μg/ml Colcemid (Sigma) and incubated for 90-120 minutes at 37° C. Next, cells were trypsinized and centrifuged at 500×g for 5 minutes; 8 ml 60 mmol/l KCl was added to the pellets and the cell suspension incubated for 20 minutes at 37° C. In a pre-fixation step, 2 ml freshly made fixative (methanol/glacial […] 3:1) was added on top of the hypotonic suspension and mixed carefully by turning the tube. After 10 minutes at RT, the mix was centrifuged at 600×g for 10 min. and the supernatant removed. For fixation, 10 ml fixative were added and the mix is kept at RT for 10 min. and centrifuged as above, the step was repeated 2 more times. Then, 0.5 ml fresh fixative was added to obtain a milky suspension of cells without clumps. Cleaned slides were placed horizontally at a 45° angle and 100 μl of cell solution dropped onto the slide from a distance of about 20 cm. Slides were dried at RT or directly dehydrated through an ethanol series of 70%, 90% and 100%. After dehydration, slides were rinsed in PBS and incubated with 0.1 μg/ml DAPI (4′, 6-diamidino-2-phenylindole)/PBS for 30 minutes at RT. […]

Another series is described as follows: water solubility. In kind it is physicochemical. From the text:
RHPS4 was synthesized as described (Heald et al 2002). RHPS4 is water-soluble and was therefore dissolved in phosphate buffered saline (PBS). For in vitro studies paclitaxel (Taxol) was purchased from Sigma (St. Louis, Mo.) and dissolved in dimethylsulfoxide (DMSO); for in vivo experiments the clinical formulation was used and obtained Cremophor from Bristol-Myers Squibb, New York, N.Y.

On to `COS(=O)(=O)[O-].Cc1cc2c3c([n+](C)c4ccc(F)cc4c3c1)-c1cc(F)ccc1N2C` [RHPS4, 3,11-difluoro-6,8,13-trimethyl-8H-quino[4,3,2-kl]acridinium methosulfate], for which the “time at which gamma-H2AX expression was seen” value with gamma-H2AX was found to be 1 h. Also, the “chromosome morphology in metaphase spreads” value in the series on UXF1138L cells was “marked increase in end-to-end joining; also recorded: ring and dicentric chromosomes”. The solubility in water result in the series “water solubility” is on record as “water-soluble”.
